Results on six molecules are retold here after PubChem BioAssay AID1745844 (Carcinogenic Potency Database (CPDB), 2022).

The term TD50 denotes the dose at which the toxic effect under study appears in half of the subjects.

Structures are written as SMILES. Where “and” joins values, the source holds several entries; their conditions need not be identical. Equal values may be shown once. Calls of active or inactive are those of the source. How the calls were made is not given here.

The subject of the series is rodent lifetime carcinogenesis bioassay, tumor incidence TD50. In words: carcinogenic potency in animals, long-term in vivo studies, CPDB compilation (AID 1745844).

For the molecule `CN(CCCC(=O)c1cccnc1)N=O`, the TD50 by setting is: (hamster, strain Syrian Golden, females, in drinking water, site: liver, lesion: hepatocellular carcinoma, dosed 87 weeks, study length 87 weeks) 5.13 mg/kg/day (inactive); (rat, strain Fischer 344, males, in drinking water, site: all sites, lesion: several types, types named in the paper, dosed 118 weeks, study length 128 weeks) 0.14 mg/kg/day; (rat, strain Fischer 344, males, in drinking water, site: liver, lesion: adenoma, dosed 118 weeks, study length 128 weeks) 0.871 mg/kg/day; (rat, strain Fischer 344, males, in drinking water, site: liver, lesion: hepatoma, dosed 118 weeks, study length 128 weeks) 2.74 mg/kg/day; (rat, strain Fischer 344, males, in drinking water, site: liver, lesion: several types, types named in the paper, dosed 111 weeks, study length 111 weeks) 2.97 mg/kg/day; (rat, strain Fischer 344, males, in drinking water, site: liver, lesion: several types, types named in the paper, dosed 118 weeks, study length 128 weeks) 0.651 mg/kg/day. Further, the TD50 reads like this: (rat, strain Fischer 344, males, in drinking water, site: lung, lesion: adenocarcinoma, dosed 111 weeks, study length 111 weeks) 0.148 mg/kg/day; (rat, strain Fischer 344, males, in drinking water, site: lung, lesion: adenocarcinoma, dosed 118 weeks, study length 128 weeks) 0.672 mg/kg/day; (rat, strain Fischer 344, males, in drinking water, site: lung, lesion: adenoma, dosed 111 weeks, study length 111 weeks) 0.279 mg/kg/day; (rat, strain Fischer 344, males, in drinking water, site: lung, lesion: adenoma, dosed 118 weeks, study length 128 weeks) 0.343 mg/kg/day; (rat, strain Fischer 344, males, in drinking water, site: lung, lesion: adenosquamous carcinoma, dosed 118 weeks, study length 128 weeks) 1.46 mg/kg/day; (rat, strain Fischer 344, males, in drinking water, site: lung, lesion: several types, types named in the paper, dosed 111 weeks, study length 111 weeks) 0.0688 mg/kg/day. The TD50 is, setting by setting: (rat, strain Fischer 344, males, in drinking water, site: lung, lesion: several types, types named in the paper, dosed 118 weeks, study length 128 weeks) 0.182 mg/kg/day; (rat, strain Fischer 344, males, in drinking water, site: lung, lesion: squamous-cell carcinoma, dosed 118 weeks, study length 128 weeks) 3.4 mg/kg/day; (rat, strain Fischer 344, males, in drinking water, site: nasal cavity, lesion: several types, types named in the paper, dosed 118 weeks, study length 128 weeks) 1.66 mg/kg/day; (rat, strain Fischer 344, males, in drinking water, site: pancreas, exocrine, lesion: acinar-cell adenoma, dosed 118 weeks, study length 128 weeks) 29.2 mg/kg/day; (rat, strain Fischer 344, males, in drinking water, site: pancreas, exocrine, lesion: adenocarcinoma, acinar or ductal, dosed 118 weeks, study length 128 weeks) 6.93 mg/kg/day; (rat, strain Fischer 344, males, in drinking water, site: pancreas, exocrine, lesion: malignant tumor, dosed 111 weeks, study length 111 weeks) 0.975 mg/kg/day. Besides, the TD50 (rat, strain Fischer 344, males, in drinking water, site: pancreas, exocrine, lesion: several types, types named in the paper, dosed 118 weeks, study length 128 weeks) was 0.49 mg/kg/day. Further, the carcinogen call is, setting by setting: (hamster, strain Syrian Golden, females, in drinking water, site: lung, lesion: several types, types named in the paper, dosed 87 weeks, study length 87 weeks) “negative (inactive)”; (hamster, strain Syrian Golden, females, in drinking water, site: pancreas, lesion: adenocarcinoma, dosed 87 weeks, study length 87 weeks) “negative (inactive)”; (hamster, strain Syrian Golden, females, in drinking water, site: pancreatic islets, lesion: islet-cell adenoma, dosed 87 weeks, study length 87 weeks) “negative (inactive)”.

Turning to `c1ccc2c(c1)ccc1cc3c(ccc4ccccc43)cc12`, the TD50 (mouse, strain DBA/2, males, in drinking water, site: lung, lesion: alveolar-cell carcinoma, dosed 60 weeks, study length 60 weeks) was 5.88 mg/kg/day.

For `ClC(Cl)(Cl)C(Cl)(Cl)Cl`, the TD50 is 1190 mg/kg/day (mouse, strain B6C3F1, females, by gavage, site: any site (literature study), lesion: several types, types named in the paper, dosed 78 weeks, study length 90 weeks); 873 mg/kg/day (mouse, strain B6C3F1, females, by gavage, site: liver, lesion: hepatocellular adenoma + hepatocellular carcinoma + neoplastic nodule, dosed 78 weeks, study length 90 weeks); 873 mg/kg/day and 319 mg/kg/day (mouse, strain B6C3F1, females, by gavage, site: liver, lesion: hepatocellular carcinoma, dosed 78 weeks, study length 90 weeks); 6950 mg/kg/day (mouse, strain B6C3F1, females, by gavage, site: lung, lesion: alveolar/bronchiolar adenoma + alveolar/bronchiolar carcinoma, dosed 78 weeks, study length 90 weeks); 675 mg/kg/day (mouse, strain B6C3F1, males, by gavage, site: any site (literature study), lesion: several types, types named in the paper, dosed 78 weeks, study length 90 weeks); 585 mg/kg/day (mouse, strain B6C3F1, males, by gavage, site: liver, lesion: hepatocellular adenoma + hepatocellular carcinoma + neoplastic nodule, dosed 78 weeks, study length 90 weeks). Also, the TD50 reads like this: (mouse, strain B6C3F1, males, by gavage, site: liver, lesion: hepatocellular carcinoma, dosed 78 weeks, study length 90 weeks) 585 mg/kg/day and 359 mg/kg/day; (mouse, strain B6C3F1, males, by gavage, site: lung, lesion: alveolar/bronchiolar adenoma + alveolar/bronchiolar carcinoma, dosed 78 weeks, study length 90 weeks) 23600 mg/kg/day; (rat, strain Fischer 344, females, by gavage, site: liver, lesion: hepatocellular adenoma + hepatocellular carcinoma + neoplastic nodule, dosed 103 weeks, study length 105 weeks) 276000 mg/kg/day; (rat, strain Fischer 344, males, by gavage, site: adrenal gland + adrenal medulla, lesion: pheochromocytoma, benign + pheochromocytoma benign, bilateral + pheochromocytoma, complex + pheochromocytoma, malignant, dosed 103 weeks, study length 105 weeks) 8.02 mg/kg/day; (rat, strain Fischer 344, males, by gavage, site: adrenal gland + adrenal medulla, lesion: pheochromocytoma, benign + pheochromocytoma benign, bilateral, dosed 103 weeks, study length 105 weeks) 9.05 mg/kg/day; (rat, strain Fischer 344, males, by gavage, site: any site (literature study), lesion: several types, types named in the paper, dosed 103 weeks, study length 105 weeks) 28 mg/kg/day. The TD50 is 55.4 mg/kg/day (rat, strain Fischer 344, males, by gavage, site: kidney, lesion: adenoma + tubule adenoma + tubule carcinoma, dosed 103 weeks, study length 105 weeks); 159 mg/kg/day (rat, strain Fischer 344, males, by gavage, site: kidney, lesion: tubule carcinoma, dosed 103 weeks, study length 105 weeks); 1340 mg/kg/day (rat, strain Fischer 344, males, by gavage, site: liver, lesion: hepatocellular adenoma + hepatocellular carcinoma + neoplastic nodule, dosed 103 weeks, study length 105 weeks). The carcinogen call (rat, strain Fischer 344, females, by gavage, site: any site (literature study), lesion: several types, types named in the paper, dosed 103 weeks, study length 105 weeks) was “negative (inactive)”; the carcinogen call (rat, strain Osborne-Mendel, females, by gavage, site: any site (literature study), lesion: several types, types named in the paper, dosed 78 weeks, study length 111 weeks) is “negative (inactive)”; the carcinogen call (rat, strain Osborne-Mendel, males, by gavage, site: any site (literature study), lesion: several types, types named in the paper, dosed 78 weeks, study length 111 weeks) was “negative (inactive)”.

Turning to `C=CC=O`, the carcinogen call by setting is: (mouse, strain Charles River CD1, females, by gavage, site: liver, lesion: hepatocellular adenoma, dosed 78 weeks, study length 78 weeks) “negative (inactive)”; (mouse, strain Charles River CD1, females, by gavage, site: lung, lesion: alveolar/bronchiolar adenoma, dosed 78 weeks, study length 78 weeks) “negative (inactive)”; (mouse, strain Charles River CD1, males, by gavage, site: liver, lesion: hepatocellular adenoma, dosed 78 weeks, study length 78 weeks) “negative (inactive)”; (mouse, strain Charles River CD1, males, by gavage, site: liver, lesion: hepatocellular carcinoma, dosed 78 weeks, study length 78 weeks) “negative (inactive)”. Moreover, the TD50 is, setting by setting: (mouse, strain Charles River CD1, females, by gavage, site: lung, lesion: alveolar/bronchiolar carcinoma, dosed 78 weeks, study length 78 weeks) 90.3 mg/kg/day (inactive); (mouse, strain Charles River CD1, males, by gavage, site: lung, lesion: alveolar/bronchiolar adenoma, dosed 78 weeks, study length 78 weeks) 526 mg/kg/day (inactive); (mouse, strain Charles River CD1, males, by gavage, site: lung, lesion: alveolar/bronchiolar carcinoma, dosed 78 weeks, study length 78 weeks) 62.6 mg/kg/day (inactive); (rat, strain Fischer 344, females, in drinking water, site: adrenal gland, lesion: cortical adenoma, dosed 104 weeks, study length 132 weeks) 93.9 mg/kg/day; (rat, strain Fischer 344, females, in drinking water, site: liver, lesion: hepatocellular carcinoma, dosed 104 weeks, study length 132 weeks) 433 mg/kg/day; (rat, strain Fischer 344, females, in drinking water, site: liver, lesion: hyperplastic nodule, dosed 104 weeks, study length 132 weeks) 388 mg/kg/day. Also, the TD50 runs as follows: (rat, strain Fischer 344, females, in drinking water, site: liver, lesion: several types, types named in the paper, dosed 104 weeks, study length 132 weeks) 188 mg/kg/day; (rat, strain Fischer 344, males, in drinking water, site: forestomach, lesion: one or several types, types not named, dosed 117 weeks, study length 132 weeks) 14.4 mg/kg/day; (rat, strain Fischer 344, males, in drinking water, site: liver, lesion: hepatocellular carcinoma, dosed 117 weeks, study length 132 weeks) 1320 mg/kg/day; (rat, strain Sprague-Dawley, females, by gavage, site: adrenal gland, lesion: pheochromocytoma, dosed 104 weeks, study length 104 weeks) 5.53 mg/kg/day; (rat, strain Sprague-Dawley, females, by gavage, site: liver, lesion: hepatocellular adenoma, dosed 104 weeks, study length 104 weeks) 214 mg/kg/day; (rat, strain Sprague-Dawley, males, by gavage, site: adrenal gland, lesion: cortical adenoma, dosed 104 weeks, study length 104 weeks) 0.471 mg/kg/day. Moreover, the TD50 (rat, strain Sprague-Dawley, males, by gavage, site: adrenal gland, lesion: cortical carcinoma, dosed 104 weeks, study length 104 weeks) was 57.7 mg/kg/day and the TD50 (rat, strain Sprague-Dawley, males, by gavage, site: liver, lesion: hepatocellular adenoma, dosed 104 weeks, study length 104 weeks) stood at 24.7 mg/kg/day.

As for `CC(CN1CC(=O)NC(=O)C1)N1CC(=O)NC(=O)C1` (configuration not stated), the TD50 was 23.7 mg/kg/day (mouse, strain B6C3F1, females, i.p., site: all sites, lesion: leukemia + lymphoma, histiocytic type + lymphoma, dosed 52 weeks, study length 86 weeks); 23.7 mg/kg/day and 25.9 mg/kg/day (mouse, strain B6C3F1, females, i.p., site: all sites, lesion: leukemia + lymphoma, dosed 52 weeks, study length 86 weeks); 53.7 mg/kg/day (mouse, strain B6C3F1, females, i.p., site: all sites, lesion: lymphoma, histiocytic type, dosed 52 weeks, study length 86 weeks); 16.8 mg/kg/day (mouse, strain B6C3F1, females, i.p., site: any site (literature study), lesion: several types, types named in the paper, dosed 52 weeks, study length 86 weeks); 262 mg/kg/day (inactive) (mouse, strain B6C3F1, males, i.p., site: any site (literature study), lesion: several types, types named in the paper, dosed 52 weeks, study length 86 weeks); 212 mg/kg/day (mouse, strain B6C3F1, males, i.p., site: lung, lesion: alveolar/bronchiolar adenoma + alveolar/bronchiolar carcinoma, dosed 52 weeks, study length 86 weeks). The TD50 reads like this: (rat, strain Sprague-Dawley, females, i.p., site: any site (literature study), lesion: several types, types named in the paper, dosed 52 weeks, study length 81 weeks) 6.48 mg/kg/day; (rat, strain Sprague-Dawley, females, i.p., site: uterus, lesion: adenocarcinoma, NOS, dosed 52 weeks, study length 79 weeks) 10.7 mg/kg/day; (rat, strain Sprague-Dawley, females, i.p., site: uterus, lesion: adenocarcinoma, NOS, dosed 52 weeks, study length 81 weeks) 11.3 mg/kg/day; (rat, strain Sprague-Dawley, males, i.p., site: any site (literature study), lesion: several types, types named in the paper, dosed 52 weeks, study length 81 weeks) 9.55 mg/kg/day (inactive); (rat, strain Sprague-Dawley, males, i.p., site: liver, lesion: hepatocellular adenoma + hepatocellular carcinoma + neoplastic nodule, dosed 52 weeks, study length 81 weeks) 105 mg/kg/day.

As to `CCCCCN(CCCCC)N=O`, the TD50 is 7.57 mg/kg/day (rat, strain Fischer 344, females, in feed, site: liver, lesion: hepatocellular carcinoma, dosed 99 weeks, study length 104 weeks) and 2.75 mg/kg/day (rat, strain Fischer 344, males, in feed, site: liver, lesion: hepatocellular carcinoma, dosed 89 weeks, study length 104 weeks).
